Assay results: US20200345010A1, “FUNGICIDAL OXADIAZOLES” (FMC Corporation, priority 2019, published 2020)
Marks after values point to notes of the source that are not given here.

What was measured:
Phakopsora pachyrhizi = assay: Test A: Asian soybean rust control on soybean seedlings; format: in vivo; conditions: 10 ppm test suspension; soybean seedlings sprayed the day before inoculation; 100 = 100% disease control, 0 = none
Text: (§1) General protocol for preparing test suspensions for Tests A-C: the test compounds were first dissolved in acetone in an amount equal to 3% of the final volume and then suspended at the desired concentration (in ppm) in acetone and purified water (50/50 mix by volume) containing 250 ppm of the surfactant PEG400 (polyhydric alcohol esters). The resulting test suspensions were then used in Tests A-C.
The test solution was sprayed to the point of run-off on soybean seedlings. The following day the seedlings were inoculated with a spore suspension of Phakopsora pachyrhizi (the causal agent of Asian soybean rust) and incubated in a saturated atmosphere at 22° C. for 24 h, and then moved to a growth chamber at 22° C. for 8 days, after which time visual disease ratings were made.
(§2) A rating of 100 indicates 100% disease control and a rating of 0 indicates no disease control (relative to the controls). A dash (-) indicates the compound was not tested.

Zymoseptoria tritici = assay: Test B: wheat leaf blotch control on wheat seedlings; format: in vivo; conditions: 250 ppm test suspension (asterisk); wheat seedlings sprayed the day before inoculation; 100 = 100% disease control, 0 = none
Text: as §1
(§3) The test solution was sprayed to the point of run-off on wheat seedlings. The following day the seedlings were inoculated with a spore suspension of Zymoseptoria tritici (the causal agent of wheat leaf blotch) and incubated in a saturated atmosphere at 24° C. for 48 h, and then moved to a growth chamber at 20° C. for 17 days, after which time disease ratings were made.
as §2

[1] = system: Puccinia recondita f. sp. tritici; assay: Test C: wheat leaf rust control on wheat seedlings; format: in vivo; conditions: wheat seedlings sprayed the day before inoculation, 100 = 100% disease control, 0 = none
Text: as §1
as §3, with “Puccinia recondita f. sp.” for “Zymoseptoria”, “rust)” for “blotch)”, “20°” for “24°”, “24” for “48”, “7” for “17”
as §2

| melting point | SMILES | Test A disease control rating (Phakopsora pachyrhizi) | Test B disease control rating (Zymoseptoria tritici) | Test C disease control rating ([1]; 10 ppm test suspension) | Test C disease control rating ([1]; 50 ppm test suspension) |
| --- | --- | --- | --- | --- | --- |
| 230 to 234 °C | O=S1(=Nc2ccc(-c3noc(C(F)(F)F)n3)cc2)c2ccccc2-c2ccccc21 [Compound 38] | 0% | 1* % | 0% | – |
| 120 to 124 °C | O=S1(=NCc2ccc(-c3noc(C(F)(F)F)n3)cc2)c2ccccc2-c2ccccc21 [Compound 41] | 97% | 86* % | 86% | – |
| 58 to 63 °C | O=S1(=NCc2ccc(-c3noc(C(F)(F)F)n3)cc2)CCCC1 [Compound 51] | 100% | 52* % | – | 100** % |
